Consider one substance from patent US11752180B2, “Intestinal protectant” (National University Corporation Asahikawa Medical University, priority 2010, dated 2023).

Where no end group is shown, it is not given here.

The assay deals with integrin (integrin β). The assay is described as follows: Interaction between polyphosphoric acid and integrin: mannitol ex vivo loop assay with peptide antagonist of integrin. More on the design: species or system mouse. The method, then:
Using a peptide antagonist of integrin, the interaction between polyphosphoric acid and integrin was analyzed. For the peptide antagonist of integrin, the peptide having the amino acid sequence of Gly-Arg-Gly-Asp-Thr-Pro (GRGDTP) (hereinafter also referred to as “GRGDTP”) was used. GRGDTP has the sequence of Arg-Gly-Asp (RGD), which is recognized by integrin β.
The intestinal tract permeability experiment on mannitol by ex vivo loop assay was carried out in the same manner as in Example 9 and Example 11 except that GRGDTP was added in a concentration of 100 μg/ml, in addition to the enzymatically synthesized polyphosphoric acid or the chemically synthesized polyphosphoric acid, to the PBS solution to be filled in the intestinal tract, and the intestinal tract barrier function was evaluated.

Take GRGDTP [peptide antagonist of integrin]: for the setting “GRGDTP 100 μg/ml in combination with chemically synthesized polyphosphoric acid”, the “effect of GRGDTP on the intestinal tract barrier effect of chemically synthesized polyphosphoric acid (mannitol leakage)” value is on record as “had the same result”. Where the note is “GRGDTP 100 μg/ml in combination with enzymatically synthesized polyphosphoric acid”, the “effect of GRGDTP on the intestinal tract barrier effect of enzymatically synthesized polyphosphoric acid (mannitol leakage)” value is given as “remarkably inhibited”.
